From ChEMBL document CHEMBL3525973, “Quantitative prediction of human intestinal glucuronidation effects on intestinal availability of UDP-glucuronosyltransferase substrates using in vitro data” (Drug Metab Dispos, 2012)

What was measured:
[1] = Unbound fraction during UGT-mediated glucuronidation in human intestinal microsomes
in vitro = details: human, blood and plasma
Description: Ratio of drug level in blood to plasma in human

[2] = Intrinsic clearance in human intestinal microsomes assessed UGT-mediated glucuronidation clearance
[3] = Unbound intrinsic clearance in human intestinal microsomes assessed UGT-mediated glucuronidation clearance
[4] = Apparent permeability by PAMPA method
[5] = Intrinsic clearance in human intestinal microsomes assessed CYP450-mediated glucuronidation clearance; details: microsomes
[6] = target: T1, UDP-glucuronosyltransferase 1A9 (Homo sapiens, UniProt O60656); test: Activity of human UGT1A9 expressed in insect cells assessed as reduction in compound level after 30 mins; format: ADME; details: 0.5 h
T1 sequence (O60656 whole entry): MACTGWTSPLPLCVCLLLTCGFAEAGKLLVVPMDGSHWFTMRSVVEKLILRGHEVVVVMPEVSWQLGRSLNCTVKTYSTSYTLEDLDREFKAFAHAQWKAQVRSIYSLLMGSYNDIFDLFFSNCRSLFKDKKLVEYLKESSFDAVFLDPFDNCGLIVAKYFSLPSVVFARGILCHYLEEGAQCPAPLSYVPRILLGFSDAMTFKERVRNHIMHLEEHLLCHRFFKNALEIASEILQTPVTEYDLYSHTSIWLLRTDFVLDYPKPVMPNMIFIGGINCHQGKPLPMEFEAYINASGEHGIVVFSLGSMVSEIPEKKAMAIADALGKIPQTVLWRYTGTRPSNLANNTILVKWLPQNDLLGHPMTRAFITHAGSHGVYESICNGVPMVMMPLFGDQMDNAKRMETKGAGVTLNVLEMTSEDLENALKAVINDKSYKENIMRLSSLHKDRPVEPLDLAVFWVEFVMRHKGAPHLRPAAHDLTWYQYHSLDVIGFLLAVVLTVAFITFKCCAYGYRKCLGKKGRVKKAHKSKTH

clinical [7] = details: human, in vivo
clinical [8] = details: human, in vivo, po
[9] = Oral bioavailability in human; format: ADME, organism-based; details: in vivo
[10] = Unbound intrinsic clearance in human intestinal microsomes assessed CYP450-mediated glucuronidation clearance
[11] = target: T2, UDP-glucuronosyltransferase 2B7 (Homo sapiens, UniProt P16662); test: Activity of human UGT2B7 expressed in insect cells assessed as reduction in compound level after 30 mins; format: ADME; details: 0.5 h
T2 sequence (P16662 whole entry): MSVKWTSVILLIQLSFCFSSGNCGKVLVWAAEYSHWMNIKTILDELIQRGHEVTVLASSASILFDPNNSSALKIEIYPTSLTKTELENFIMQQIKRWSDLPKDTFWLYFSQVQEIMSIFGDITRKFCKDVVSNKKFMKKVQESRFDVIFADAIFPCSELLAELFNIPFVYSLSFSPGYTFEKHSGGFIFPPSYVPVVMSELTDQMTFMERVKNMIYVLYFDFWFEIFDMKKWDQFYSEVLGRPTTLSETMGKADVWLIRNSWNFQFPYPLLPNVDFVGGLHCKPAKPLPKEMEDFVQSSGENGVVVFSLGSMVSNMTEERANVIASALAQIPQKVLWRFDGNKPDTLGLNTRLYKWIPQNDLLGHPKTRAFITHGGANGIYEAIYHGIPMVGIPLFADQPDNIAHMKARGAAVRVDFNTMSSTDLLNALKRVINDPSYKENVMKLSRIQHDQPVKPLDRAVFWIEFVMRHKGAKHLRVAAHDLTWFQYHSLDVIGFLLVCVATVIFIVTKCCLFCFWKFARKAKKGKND

SMILES	fraction unbound ([1]; intestinal microsomes)	blood plasma ratio (in vitro)	microsomal CLint ([2]; intestinal microsomes) [µL/min/mg]	CL free [3] [µL/min/mg]	Papp [4] [×10⁻⁶ cm/s]	fraction unbound ([1]; microsomes)	Drug metabolism [6]	other results
CCN(CC)C(=O)/C(C#N)=C/c1cc(O)c(O)c([N+](=O)[O-])c1 [ENTACAPONE]	1	0.59	27	27	4.1	–	–	–
Cc1ncc2n1-c1ccc(Cl)cc1C(c1ccccc1F)=NC2 [MIDAZOLAM]	–	–	–	–	–	–	–	microsomal CLint [5]: 153 µL/min/mg
CCCc1nc2c(C)cc(-c3nc4ccccc4n3C)cc2n1Cc1ccc(-c2ccccc2C(=O)O)cc1	–	0.67	20	21.7	> 30	0.92	–	–
Cc1ccc(C(=O)c2cc(O)c(O)c([N+](=O)[O-])c2)cc1 [TOLCAPONE]	0.39	0.61	40	103	18	–	metabolite_detected	–
CCc1cccc2c3c([nH]c12)C(CC)(CC(=O)O)OCC3 (stereo unspecified) [ETODOLAC]	–	0.55	6.2	5.7	23	–	metabolite_detected	clearance (clinical [7]): 0.66 mL/min/kg; CL/F (clinical [8]): 0.82 mL/min/kg; bioavailability [9]: 80%
O=C(O)Cc1ccccc1Nc1c(Cl)cccc1Cl [DICLOFENAC]	–	–	–	62.7	–	0.94	–	CL free [10]: metabolite_not_detected; CL [5]: metabolite_not_detected; Drug metabolism [11]: metabolite_detected; microsomal CLint ([2]; microsomes): 59 µL/min/mg
